In patent US20110039721A1, “METHOD FOR PREDICTION ABOUT CARCINOGENICITY OF SUBSTANCE IN RODENT” (Chemicals Evaluation and Research Institute, priority 2007, published 2011):

Tests used:
[1] = tested on: mRNA expressed from the genes (A) to (D) in rat liver; experiment: Behavior of genes (mRNA expression level, oligo-DNA microarray) in rat liver after 28-day oral administration; format: in vivo; settings: for Behavior of gene caused by administration of chemical substance, Gene No. 4846 / Behavior of gene caused by administration of chemical substance, Gene No. 2026 / Behavior of gene caused by administration of chemical substance, Gene No. 4218 / Behavior of gene caused by administration of chemical substance, Gene No. 6182 / Behavior of gene caused by administration of chemical substance, Gene No. 5600: gene group (A); for Behavior of gene caused by administration of chemical substance, Gene No. 4846: Unigene No. Rn.144554; for Behavior of gene caused by administration of chemical substance, Gene No. 2026 / Behavior of gene caused by administration of chemical substance, Gene No. 4218: Unigene No. Rn.167075; for Behavior of gene caused by administration of chemical substance, Gene No. 6182: Unigene No. Rn.5834; for Behavior of gene caused by administration of chemical substance, Gene No. 5600: Unigene No. Rn.9836; for Behavior of gene caused by administration of chemical substance, Gene No. 1494 / Behavior of gene caused by administration of chemical substance, Gene No. 2045 / Behavior of gene caused by administration of chemical substance, Gene No. 2203: gene group (B); for Behavior of gene caused by administration of chemical substance, Gene No. 1494: Unigene No. Rn.1430; for Behavior of gene caused by administration of chemical substance, Gene No. 2045: Unigene No. Rn.19329; for Behavior of gene caused by administration of chemical substance, Gene No. 2203: Unigene No. Rn.21240; for Behavior of gene caused by administration of chemical substance, Gene No. 533 / Behavior of gene caused by administration of chemical substance, Gene No. 725 / Behavior of gene caused by administration of chemical substance, Gene No. 1163 / Behavior of gene caused by administration of chemical substance, Gene No. 4973 / Behavior of gene caused by administration of chemical substance, Gene No. 4095 / Behavior of gene caused by administration of chemical substance, Gene No. 1334 / Behavior of gene caused by administration of chemical substance, Gene No. 6620 / Behavior of gene caused by administration of chemical substance, Gene No. 6303 / Behavior of gene caused by administration of chemical substance, Gene No. 5878 / Behavior of gene caused by administration of chemical substance, Gene No. 1131 / Behavior of gene caused by administration of chemical substance, Gene No. 1562 / Behavior of gene caused by administration of chemical substance, Gene No. 1741 / Behavior of gene caused by administration of chemical substance, Gene No. 893 / Behavior of gene caused by administration of chemical substance, Gene No. 6026 / Behavior of gene caused by administration of chemical substance, Gene No. 154 / Behavior of gene caused by administration of chemical substance, Gene No. 1993 / Behavior of gene caused by administration of chemical substance, Gene No. 813 / Behavior of gene caused by administration of chemical substance, Gene No. 2494 / Behavior of gene caused by administration of chemical substance, Gene No. 2546 / Behavior of gene caused by administration of chemical substance, Gene No. 3776 / Behavior of gene caused by administration of chemical substance, Gene No. 3929 / Behavior of gene caused by administration of chemical substance, Gene No. 1119 / Behavior of gene caused by administration of chemical substance, Gene No. 6742 / Behavior of gene caused by administration of chemical substance, Gene No. 5634: gene group (C); for Behavior of gene caused by administration of chemical substance, Gene No. 533: Unigene No. Rn.106184; for Behavior of gene caused by administration of chemical substance, Gene No. 725: Unigene No. Rn.108075; for Behavior of gene caused by administration of chemical substance, Gene No. 1163: Unigene No. Rn.11766; for Behavior of gene caused by administration of chemical substance, Gene No. 4973: Unigene No. Rn.118529; for Behavior of gene caused by administration of chemical substance, Gene No. 4095: Unigene No. Rn.119024; for Behavior of gene caused by administration of chemical substance, Gene No. 1334 / Behavior of gene caused by administration of chemical substance, Gene No. 6620: Unigene No. Rn.120914; for Behavior of gene caused by administration of chemical substance, Gene No. 6303: Unigene No. Rn.123063; for Behavior of gene caused by administration of chemical substance, Gene No. 5878: Unigene No. Rn.143213; for Behavior of gene caused by administration of chemical substance, Gene No. 1131: Unigene No. Rn.144946; for Behavior of gene caused by administration of chemical substance, Gene No. 1562: Unigene No. Rn.14744; for Behavior of gene caused by administration of chemical substance, Gene No. 1741: Unigene No. Rn.1647; for Behavior of gene caused by administration of chemical substance, Gene No. 893: Unigene No. Rn.164817; for Behavior of gene caused by administration of chemical substance, Gene No. 6026: Unigene No. Rn.167685; for Behavior of gene caused by administration of chemical substance, Gene No. 154: Unigene No. Rn.185941; for Behavior of gene caused by administration of chemical substance, Gene No. 1993: Unigene No. Rn.18728; for Behavior of gene caused by administration of chemical substance, Gene No. 813: Unigene No. Rn.201760; for Behavior of gene caused by administration of chemical substance, Gene No. 2494: Unigene No. Rn.23969; for Behavior of gene caused by administration of chemical substance, Gene No. 2546: Unigene No. Rn.24561; for Behavior of gene caused by administration of chemical substance, Gene No. 3776: Unigene No. Rn.43232; for Behavior of gene caused by administration of chemical substance, Gene No. 3929: Unigene No. Rn.4620; for Behavior of gene caused by administration of chemical substance, Gene No. 1119: Unigene No. Rn.9757; for Behavior of gene caused by administration of chemical substance, Gene No. 6742: Unigene No. Rn.9779; for Behavior of gene caused by administration of chemical substance, Gene No. 5634: Unigene No. Rn.9862; for Behavior of gene caused by administration of chemical substance, Gene No. 5726: gene group (D), Unigene No. Rn.9939
Procedure, shortened: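 Liver mRNA levels were compared with matched vehicle groups, with a shift of at least 1.5-fold up or down deemed significant unless its direction disagreed with other carcinogens. Test substances were dosed orally by gavage daily for 28 days to 5-week-old male F344 rats, four per group.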

[2] = classification of the substance (M+/M−); cited from earlier work
[3] = tested on: rodent; settings: classification of the substance (C+/C−); cited from earlier work
[4] = tested on: liver; settings: classification of the substance (Cr+/Cr−); cited from earlier work

| Structure (SMILES) | Behavior of gene caused by administration of chemical substance, Gene No. 4846 [1] | Behavior of gene caused by administration of chemical substance, Gene No. 2026 [1] | Behavior of gene caused by administration of chemical substance, Gene No. 4218 [1] | Behavior of gene caused by administration of chemical substance, Gene No. 6182 [1] | Behavior of gene caused by administration of chemical substance, Gene No. 5600 [1] | Behavior of gene caused by administration of chemical substance, Gene No. 1494 [1] | Behavior of gene caused by administration of chemical substance, Gene No. 2045 [1] | Behavior of gene caused by administration of chemical substance, Gene No. 2203 [1] | Behavior of gene caused by administration of chemical substance, Gene No. 533 [1] | Behavior of gene caused by administration of chemical substance, Gene No. 725 [1] | Behavior of gene caused by administration of chemical substance, Gene No. 1163 [1] | Behavior of gene caused by administration of chemical substance, Gene No. 4973 [1] | Behavior of gene caused by administration of chemical substance, Gene No. 4095 [1] | Behavior of gene caused by administration of chemical substance, Gene No. 1334 [1] | Behavior of gene caused by administration of chemical substance, Gene No. 6620 [1] | Behavior of gene caused by administration of chemical substance, Gene No. 6303 [1] | Behavior of gene caused by administration of chemical substance, Gene No. 5878 [1] | Behavior of gene caused by administration of chemical substance, Gene No. 1131 [1] | Behavior of gene caused by administration of chemical substance, Gene No. 1562 [1] | Behavior of gene caused by administration of chemical substance, Gene No. 1741 [1] | also measured |
| --- | --- | --- | --- | --- | --- | --- | --- | --- | --- | --- | --- | --- | --- | --- | --- | --- | --- | --- | --- | --- | --- |
| Nc1cc([N+](=O)[O-])ccc1C(=O)O [TS082, 4-Nitroanthranilic acid] | − | − | − | + | − | + | − | − | + | − | − | + | + | − | − | + | − | + | + | + | Behavior of gene caused by administration of chemical substance, Gene No. 893 [1]: +; Behavior of gene caused by administration of chemical substance, Gene No. 6026 [1]: −; Behavior of gene caused by administration of chemical substance, Gene No. 154 [1]: +; Behavior of gene caused by administration of chemical substance, Gene No. 1993 [1]: +; Behavior of gene caused by administration of chemical substance, Gene No. 813 [1]: −; Behavior of gene caused by administration of chemical substance, Gene No. 2494 [1]: −; Behavior of gene caused by administration of chemical substance, Gene No. 2546 [1]: +; Behavior of gene caused by administration of chemical substance, Gene No. 3776 [1]: +; Behavior of gene caused by administration of chemical substance, Gene No. 3929 [1]: +; Behavior of gene caused by administration of chemical substance, Gene No. 1119 [1]: +; Behavior of gene caused by administration of chemical substance, Gene No. 6742 [1]: +; Behavior of gene caused by administration of chemical substance, Gene No. 5634 [1]: +; Behavior of gene caused by administration of chemical substance, Gene No. 5726 [1]: −; Mutagenicity by Ames test [2]: M+; Carcinogenicity [3]: C−; Liver carcinogenicity [4]: Cr− |
| Cl.ClCc1ccccn1 [TS033, 2-Chloromethylpyridine HCl] | − | − | − | − | − | − | − | − | − | − | − | − | − | − | − | − | − | − | − | − | Behavior of gene caused by administration of chemical substance, Gene No. 893 [1]: −; Behavior of gene caused by administration of chemical substance, Gene No. 6026 [1]: −; Behavior of gene caused by administration of chemical substance, Gene No. 154 [1]: −; Behavior of gene caused by administration of chemical substance, Gene No. 1993 [1]: −; Behavior of gene caused by administration of chemical substance, Gene No. 813 [1]: −; Behavior of gene caused by administration of chemical substance, Gene No. 2494 [1]: −; Behavior of gene caused by administration of chemical substance, Gene No. 2546 [1]: −; Behavior of gene caused by administration of chemical substance, Gene No. 3776 [1]: −; Behavior of gene caused by administration of chemical substance, Gene No. 3929 [1]: −; Behavior of gene caused by administration of chemical substance, Gene No. 1119 [1]: −; Behavior of gene caused by administration of chemical substance, Gene No. 6742 [1]: −; Behavior of gene caused by administration of chemical substance, Gene No. 5634 [1]: −; Behavior of gene caused by administration of chemical substance, Gene No. 5726 [1]: −; Mutagenicity by Ames test [2]: M+; Carcinogenicity [3]: C−; Liver carcinogenicity [4]: Cr− |
